Consider 19 compounds from patent US8541418B2, “Inhibitors of polo-like kinase” (Elan Pharmaceutical, Inc., priority 2009, dated 2013).

What all share (type): biochemical
In one experiment the target is PLK3 (Homo sapiens, UniProt Q9H4B4). Put plainly: PLK TR-FRET peptide assay, PLK3.
A further experiment deals with PLK1 (Homo sapiens, UniProt P53350). Put plainly: PLK TR-FRET peptide assay, PLK1. (TR-FRET usually uses a lanthanide donor and a delayed reading to cut background.)
A further experiment concerns the target PLK2 (Homo sapiens, UniProt Q9NYY3). As to the kind of experiment: PLK TR-FRET peptide assay, PLK2. The settings on record: for IC50: PLK TR-FRET peptide assay, read-out: Plk2 IC50.
Where [1] appears, read: GST-PLK3, 15 min reaction, read-out: Plk3 IC50.

Structures are written as SMILES. Where two headings read alike, the source gives them in different places.

PLK1, sequence (P53350 whole entry): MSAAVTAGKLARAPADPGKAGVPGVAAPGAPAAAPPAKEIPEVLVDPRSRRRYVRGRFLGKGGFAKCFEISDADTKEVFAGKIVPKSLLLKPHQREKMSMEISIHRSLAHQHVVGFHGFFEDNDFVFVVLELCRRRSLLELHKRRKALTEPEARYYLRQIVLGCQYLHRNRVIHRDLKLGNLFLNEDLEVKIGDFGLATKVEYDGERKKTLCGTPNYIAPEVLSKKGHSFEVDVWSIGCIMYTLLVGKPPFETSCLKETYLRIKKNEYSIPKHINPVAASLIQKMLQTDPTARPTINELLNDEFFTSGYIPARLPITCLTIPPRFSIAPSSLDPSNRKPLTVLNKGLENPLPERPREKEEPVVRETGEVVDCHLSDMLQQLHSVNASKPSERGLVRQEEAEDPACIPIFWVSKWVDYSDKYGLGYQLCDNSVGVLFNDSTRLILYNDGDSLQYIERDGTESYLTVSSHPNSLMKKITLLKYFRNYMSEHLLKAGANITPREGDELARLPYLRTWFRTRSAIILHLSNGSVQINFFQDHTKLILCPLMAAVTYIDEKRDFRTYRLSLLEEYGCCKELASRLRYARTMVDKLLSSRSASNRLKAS
PLK2, sequence (Q9NYY3 whole entry): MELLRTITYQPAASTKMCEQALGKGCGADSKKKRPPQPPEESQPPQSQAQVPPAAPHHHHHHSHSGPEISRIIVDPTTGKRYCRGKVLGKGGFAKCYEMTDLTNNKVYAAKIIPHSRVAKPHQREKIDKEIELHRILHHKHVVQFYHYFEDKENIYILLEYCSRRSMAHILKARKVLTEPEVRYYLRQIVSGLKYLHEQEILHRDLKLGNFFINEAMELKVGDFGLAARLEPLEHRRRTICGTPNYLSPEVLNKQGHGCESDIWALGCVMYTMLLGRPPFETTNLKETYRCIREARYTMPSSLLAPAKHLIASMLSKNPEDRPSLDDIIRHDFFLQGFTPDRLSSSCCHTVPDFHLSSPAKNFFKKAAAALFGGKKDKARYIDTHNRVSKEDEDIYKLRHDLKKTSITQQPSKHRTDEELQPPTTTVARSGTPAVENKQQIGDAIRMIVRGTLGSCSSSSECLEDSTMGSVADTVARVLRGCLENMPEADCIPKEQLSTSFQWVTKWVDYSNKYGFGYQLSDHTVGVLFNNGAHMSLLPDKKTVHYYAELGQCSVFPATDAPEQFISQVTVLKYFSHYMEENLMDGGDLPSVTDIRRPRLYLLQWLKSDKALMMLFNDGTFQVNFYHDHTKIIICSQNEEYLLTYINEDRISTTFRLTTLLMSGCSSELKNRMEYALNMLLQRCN
PLK3, sequence (Q9H4B4 whole entry): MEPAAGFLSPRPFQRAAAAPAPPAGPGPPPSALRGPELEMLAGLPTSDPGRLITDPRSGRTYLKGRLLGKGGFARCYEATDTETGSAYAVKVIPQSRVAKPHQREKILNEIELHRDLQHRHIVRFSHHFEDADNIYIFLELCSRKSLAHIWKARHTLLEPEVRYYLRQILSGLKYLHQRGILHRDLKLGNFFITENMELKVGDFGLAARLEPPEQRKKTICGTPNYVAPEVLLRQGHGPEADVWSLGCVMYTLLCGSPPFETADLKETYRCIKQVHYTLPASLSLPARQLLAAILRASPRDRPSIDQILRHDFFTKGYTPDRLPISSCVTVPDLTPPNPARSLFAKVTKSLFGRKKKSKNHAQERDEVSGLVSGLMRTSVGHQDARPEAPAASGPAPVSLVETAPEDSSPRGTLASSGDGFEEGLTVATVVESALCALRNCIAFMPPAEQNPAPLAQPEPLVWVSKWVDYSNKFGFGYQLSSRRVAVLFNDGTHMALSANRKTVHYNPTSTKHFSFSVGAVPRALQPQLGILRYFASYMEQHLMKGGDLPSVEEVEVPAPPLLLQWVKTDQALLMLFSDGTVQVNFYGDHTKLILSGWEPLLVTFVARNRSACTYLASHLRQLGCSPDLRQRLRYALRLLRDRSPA

Turning to `CC[C@@H]1C(=O)N(C)c2cnc(-n3ccnc3-c3cccc(F)c3)nc2N1C1CC(F)(F)C1` [Example 194, (R)-8-(3,3-difluorocyclobutyl)-7-ethyl-2-(2-(3-fluorophenyl)-1H-imidazol-1-yl)-5-methyl-7,8-dihydropteridin-6(5H)-one], the IC50 – broadly, the concentration at which inhibition is half-maximal – at PLK3 (setting [1]) is 10 to 50 µM; at PLK1 (GST-PLK1, 60 min reaction), less than 1 µM; at PLK2 (GST-PLK2, 60 min reaction), less than 1 µM.
For `CC[C@@H]1C(=O)N(C)c2cnc(-c3cccc(C(N)=O)c3)nc2N1C1CCCC1` [Example 66, (R)-3-(8-cyclopentyl-7-ethyl-5-methyl-6-oxo-5,6,7,8-tetrahydropteridin-2-yl)benzamide], the IC50 on PLK3 (setting [1]) is 1 to 10 µM; against PLK1 (GST-PLK1, 60 min reaction), less than 1 µM; on PLK2 (GST-PLK2, 60 min reaction) it was less than 1 µM.
Regarding `CC[C@@H]1C(=O)N(C)c2cnc(-n3ccnc3-c3ccccc3F)nc2N1C1CCC1` [Example 49, (R)-8-cyclobutyl-7-ethyl-2-(2-(2-fluorophenyl)-1H-imidazol-1-yl)-5-methyl-7,8-dihydropteridin-6(5H)-one], the IC50 on PLK3 (setting [1]) is 1 to 10 µM; at PLK1 (GST-PLK1, 60 min reaction), less than 1 µM; on PLK2 (GST-PLK2, 60 min reaction) it was less than 1 µM.
Regarding `CC[C@@H]1C(=O)N(C)c2cnc(-c3cncnc3-c3nccs3)nc2N1C(C)C` [Example 197, (R)-7-ethyl-8-isopropyl-5-methyl-2-(4-(thiazol-2-yl)pyrimidin-5-yl)-7,8-dihydropteridin-6(5H)-one], the IC50 was 1 to 10 µM on PLK3 (setting [1]); 1 to 10 µM on PLK1 (GST-PLK1, 60 min reaction); 1 to 10 µM at PLK2 (GST-PLK2, 60 min reaction).
Take `CC[C@@H]1C(=O)N(C)c2cnc(-c3sc(C#N)nc3-c3ccc(F)cc3)nc2N1C(C)C` [Example 354, (R)-5-(7-ethyl-8-isopropyl-5-methyl-6-oxo-5,6,7,8-tetrahydropteridin-2-yl)-4-(4-fluorophenyl)thiazole-2-carbonitrile]: the IC50 was less than 1 µM at PLK3 (setting [1]); 1 to 10 µM against PLK1 (GST-PLK1, 60 min reaction); less than 1 µM on PLK2 (GST-PLK2, 60 min reaction).
Turning to `CC[C@@]12CCCN1c1nc(-n3ncnc3-c3cccc4ncccc34)ncc1N(C)C2=O` [Example 219, (S)-6a-ethyl-5-methyl-2-(5-(quinolin-5-yl)-1H-1,2,4-triazol-1-yl)-6a,7,8,9-tetrahydropyrrolo[2,1-h]pteridin-6(5H)-one], the IC50 is more than 50 µM on PLK3 (setting [1]); 10 to 50 µM at PLK1 (GST-PLK1, 60 min reaction); 1 to 10 µM at PLK2 (GST-PLK2, 60 min reaction).
On to `CC[C@@H]1CC[C@@]2(CC)C(=O)N(C)c3cnc(-c4cn[nH]c4-c4cscn4)nc3N12` [Example 356, (6aS,9R)-6a,9-diethyl-5-methyl-2-(5-(thiazol-4-yl)-1H-pyrazol-4-yl)-6a,7,8,9-tetrahydropyrrolo[2,1-h]pteridin-6(5H)-one], for which the IC50 at PLK3 (setting [1]) is 1 to 10 µM; against PLK1 (GST-PLK1, 60 min reaction), 1 to 10 µM; at PLK2 (GST-PLK2, 60 min reaction) it was less than 1 µM.
For the compound `CC[C@@H]1C(=O)N(C)c2cnc(-n3ccnc3-c3cccc(Cl)c3)nc2N1C(C)C` [Example 204, (R)-2-(2-(3-chlorophenyl)-1H-imidazol-1-yl)-7-ethyl-8-isopropyl-5-methyl-7,8-dihydropteridin-6(5H)-one], the IC50 at PLK3 (setting [1]) was 1 to 10 µM; against PLK1 (GST-PLK1, 60 min reaction) it was less than 1 µM; on PLK2 (GST-PLK2, 60 min reaction), less than 1 µM.
Consider `CCC1C(=O)N(C)c2cnc(-n3ccnc3-c3ccc(F)cc3)nc2N1c1ccc(Cl)cc1` (stereo not shown) [Example 388, 8-(4-chlorophenyl)-7-ethyl-2-(2-(4-fluorophenyl)-1H-imidazol-1-yl)-5-methyl-7,8-dihydropteridin-6(5H)-one], for which the IC50 on PLK3 (GST-PLK3, read-out: Plk3 IC50) was 1 to 10 µM; against PLK1 (GST-PLK1), 1 to 10 µM; on PLK2 (GST-PLK2) it was less than 1 µM.
`CC[C@@]12CCCCN1c1nc(-n3ccnc3)ncc1N(C)C2=O` [Example 286, (S)-6a-ethyl-2-(1H-imidazol-1-yl)-5-methyl-7,8,9,10-tetrahydro-5H-pyrido[2,1-h]pteridin-6(6aH)-one]: the IC50 is more than 50 µM on PLK3 (setting [1]); more than 50 µM on PLK1 (GST-PLK1, 60 min reaction); 1 to 10 µM on PLK2 (GST-PLK2, 60 min reaction). In addition, the “relative PLK2 activity of the enantiomers” value on PLK2 (compared with the opposite enantiomer) is “more active compound”.
For `CC[C@@H]1C(=O)N(C)c2cnc(-c3cn[nH]c3)nc2N1C(C)C` [Example 31, (R)-7-ethyl-8-isopropyl-5-methyl-2-(1H-pyrazol-4-yl)-7,8-dihydropteridin-6(5H)-one], the half-maximal inhibitory concentration (IC50) at PLK3 (setting [1]) was more than 50 µM; on PLK1 (GST-PLK1, 60 min reaction) it was 1 to 10 µM; on PLK2 (GST-PLK2, 60 min reaction) it was less than 1 µM.
On to `CC[C@@H]1C(=O)N(C)c2cnc(-n3ccnc3Cc3ccccc3)nc2N1C1CCCC1` [Example 75, (R)-2-(2-benzyl-1H-imidazol-1-yl)-8-cyclopentyl-7-ethyl-5-methyl-7,8-dihydropteridin-6(5H)-one], for which the IC50 at PLK3 (setting [1]) was 10 to 50 µM; at PLK1 (GST-PLK1, 60 min reaction) it was 1 to 10 µM; at PLK2 (GST-PLK2, 60 min reaction) it was less than 1 µM.
Turning to `CC[C@@H]1C(=O)N(C)c2cnc(-n3ccnc3-c3ccc(F)cc3Cl)nc2N1CCC(F)(F)F` [Example 282, (R)-2-(2-(2-chloro-4-fluorophenyl)-1H-imidazol-1-yl)-7-ethyl-5-methyl-8-(3,3,3-trifluoropropyl)-7,8-dihydropteridin-6(5H)-one], the IC50 on PLK3 (setting [1]) was 10 to 50 µM; on PLK1 (GST-PLK1, 60 min reaction) it was 10 to 50 µM; on PLK2 (GST-PLK2, 60 min reaction), less than 1 µM.
On to `CC[C@@H]1C(=O)N(C)c2cnc(-n3ccnc3)nc2N1C1CCOCC1` [Example 295, (R)-7-ethyl-2-(1H-imidazol-1-yl)-5-methyl-8-(tetrahydro-2H-pyran-4-yl)-7,8-dihydropteridin-6(5H)-one], for which the IC50 on PLK3 (setting [1]) was 10 to 50 µM; against PLK1 (GST-PLK1, 60 min reaction), 1 to 10 µM; on PLK2 (GST-PLK2, 60 min reaction) it was 1 to 10 µM.
Take `CCC12CCCCN1c1nc(-n3ccnc3-c3cc(F)cc(F)c3)ncc1N(C)C2=O` (racemic) [Example 243, (+/−) 2-(2-(3,5-difluorophenyl)-1H-imidazol-1-yl)-6a-ethyl-5-methyl-7,8,9,10-tetrahydro-5H-pyrido[2,1-h]pteridin-6(6aH)-one]: the IC50 at PLK3 (setting [1]) was more than 50 µM; against PLK1 (GST-PLK1, 60 min reaction), 10 to 50 µM; on PLK2 (GST-PLK2, 60 min reaction), less than 1 µM.
Turning to `CC[C@@]12CCCN1c1nc(-n3ccnc3-c3cccc(F)c3)ncc1N(C)C2=O` [Example 225, (S)-6a-ethyl-2-(2-(3-fluorophenyl)-1H-imidazol-1-yl)-5-methyl-6a,7,8,9-tetrahydropyrrolo[2,1-h]pteridin-6(5H)-one], the IC50 was 10 to 50 µM on PLK3 (setting [1]); 1 to 10 µM at PLK1 (GST-PLK1, 60 min reaction); less than 1 µM on PLK2 (GST-PLK2, 60 min reaction).
For `CC[C@@H]1C(=O)N(C)c2cnc(-c3cccc(NS(C)(=O)=O)c3)nc2N1C1CCCC1` [Example 53, (R)—N-(3-(8-cyclopentyl-7-ethyl-5-methyl-6-oxo-5,6,7,8-tetrahydropteridin-2-yl)phenyl)methanesulfonamide] the same measures were 1 to 10 µM, 1 to 10 µM and less than 1 µM.
For `CC[C@@H]1C(=O)N(C)c2cnc(-n3ccnc3-c3ccc(F)c(F)c3)nc2N1C1CCC1` [Example 48, (R)-8-cyclobutyl-2-(2-(3,4-difluorophenyl)-1H-imidazol-1-yl)-7-ethyl-5-methyl-7,8-dihydropteridin-6(5H)-one], the IC50 was 10 to 50 µM at PLK3 (setting [1]); 1 to 10 µM at PLK1 (GST-PLK1, 60 min reaction); less than 1 µM on PLK2 (GST-PLK2, 60 min reaction).
Take `CC[C@]12CCCCN1c1nc(-n3ccnc3-c3cccc(F)c3F)ncc1N(C)C2=O` [Example 261, (R)-2-(2-(2,3-difluorophenyl)-1H-imidazol-1-yl)-6a-ethyl-5-methyl-7,8,9,10-tetrahydro-5H-pyrido[2,1-h]pteridin-6(6aH)-one]: the IC50 on PLK3 (setting [1]) was more than 50 µM; at PLK1 (GST-PLK1, 60 min reaction) it was more than 50 µM; at PLK2 (GST-PLK2, 60 min reaction), 1 to 10 µM.
